The values below come from the NIST ThermoML archive (doi:10.1021/acs.jced.9b00703).

Series [1] can be described thus: Molar enthalpy of transition or fusion. The note with it: Crystal; DSC.
The conditions of series [2]: Crystal; DSC.

Numbers after ± are expanded uncertainties.

Regarding `OC[C@H]1O[C@@H](Oc2ccc(O)cc2)[C@H](O)[C@@H](O)[C@@H]1O` [β-arbutin], in series [1], the “Molar enthalpy of transition or fusion” value was 10.7 ± 0.382 kcal/mol. For the same compound, the Triple point temperature in series [2] is listed as 475.25 ± 0.87 K.
